Measurements: patent US11903981B2, “Use of Anaerofustis stercorihominis in preventing and/or treating metabolic diseases” (priority 2018, dated 2024)
Marks after values point to notes of the source that are not given here.

Key:
Assay type in all cases: in vivo
[1] = tested on: obesity mice model (C57BL/6 male mice, high-fat feed); test: Obesity animal model (high-fat feed), body weight; details: bacterial solution 1×10^8 cfu/ml by gavage; for Weight of mice, Week 9: Week 9, *P<0.05 relative to model group
Protocol: The obesity animal model is constructed by using C57BL/6 male mice (purchased from Guangdong Medical Experimental Animal Center) at 8 weeks old and 20±2 g of body weight, which is housed in a specific pathogen free (SPF) environment and access to food and water ad lib. The mice are randomly divided into 5 groups, with 10 mice in each group.
Bacterial agent group 1: mice were fed with high-fat feed every day, in which the AM25-6 bacterial solution (1×10^8 cfu/ml) was administered by gavage for 9 weeks after 4 weeks of feeding high-fat feed;
Bacterial agent group 2: mice were fed with high-fat feed every day, in which the DSM 17244 bacterial solution (1×10^8 cfu/ml) was administered by gavage for 9 weeks after 4 weeks of feeding high-fat feed;
Bacterial agent group 3: mice were fed with high-fat feed every day, in which the DSM 28733 bacterial solution (1×10^8 cfu/ml) was administered by gavage for 9 weeks after 4 weeks of feeding high-fat feed;
Obesity model group: mice were fed with high-fat feed every day, in which the culture medium in a same amount was administered by gavage for 9 weeks after 4 weeks of feeding high-fat feed.
During the experimental period, experimental data such as the body weight, body condition and food intake amount of mice were recorded every week. After the completion of experiment, the mice were sacrificed, and the fat weight was recorded and the serum was collected for detecting blood lipids by using the Elisa kit.

[2] = tested on: T2D mice model (C57bL/6 mice); test: T2D animal model (STZ plus high-fat feed), body weight; details: gavage
Protocol: (§1) The T2D animal model is constructed by using C57bL/6 mice (purchased from Guangdong Medical Experimental Animal Center) at 8 weeks old and 20±2 g of body weight. The mice were housed in a specific pathogen free (SPF) environment and adaptively fed for 1 week, followed by grouping and modeling. The T2D animal model is induced by injection of streptozotocin (STZ) along with feeding high-fat feed, and the mice having fasting blood glucose (FBG) reaching to 10 mM/L can be used as a T2D mice model. Fifty mice selected for experiments are randomly divided into 5 groups.
(§2) Bacterial agent group 1: the T2D mice model was administered with the AM25-6 bacterial solution (1×10^8 cfu/ml) by gavage;
(§3) Bacterial agent group 2: the T2D mice model was administered with the DSM 17244 bacterial solution (1×10^8 cfu/ml) by gavage;
(§4) Bacterial agent group 3: the T2D mice model was administered with the DSM 28733 bacterial solution (1×10^8 cfu/ml) by gavage;
(§5) Metformin treatment group: the T2D mice model was treated with the positive drug metformin.
(§6) The experiment was carried out based on the different groups. After the construction of T2D mice model (i.e., FBG>10), the treatment was started and lasted for 2 months. The food intake amount and body weight of mice were recorded daily. Blood of mice was collected from the tail vein every week for detection of fasting blood glucose. The oral glucose tolerance test (OGTT) of mice was measured at week 4 of treatment and at the end of the experiment.

[3] = tested on: T2D mice model (C57bL/6 mice); test: T2D animal model, fasting blood glucose
Protocol: as §1, §2, §3, §4, §5, §6

[4] = tested on: T2D mice model (C57bL/6 mice); test: T2D animal model, oral glucose tolerance test (OGTT); details: for Blood glucose in OGTT, 0 minute: 0 minute after glucose by gavage; for Blood glucose in OGTT, 30 minutes: 30 minutes after glucose by gavage; for Blood glucose in OGTT, 60 minutes: 60 minutes after glucose by gavage; for Blood glucose in OGTT, 90 minutes: 90 minutes after glucose by gavage; for Blood glucose in OGTT, 120 minutes: 120 minutes after glucose by gavage
Protocol: as §1, §6
The results of oral glucose tolerance test (OGTT) for mice shown in Table 8 indicate that the blood glucose of mice reaches the highest level (i.e., 17.8-23.1 mmol/L) at 30 minutes upon administration of glucose by gavage. […] From the perspective of overall glucose tolerance process, it can be seen that Anaerofustis stercorihominis can effectively ameliorate glucose intolerance in diabetic mice.

[5] = tested on: C57bL/6 mice fed with high-fat feed; test: Hyperlipidemia animal model (high-fat feed), blood lipids and blood viscosity; details: for blood viscosity: carotid artery blood, hemorheological examination; for HDLC (high-density lipoprotein) / LDLC (low-density lipoprotein) / TC (total cholesterol) / TG (triglyceride): serum, bacterial solution 2 ml 1×10^9 cfu/ml daily or tablets 0.6 g/kg
Protocol: Sixty C57bL/6 mice (purchased from Guangdong Medical Experimental Animal Center) at 6 weeks old were used in this experiment, which were normally fed in a Specific pathogen Free (SPF) environment. The mice were adaptively fed for 1 week and then randomly divided into 6 groups, with 10 mice in each group. The animal model is constructed along with intervention.
Bacterial agent group 1: the mice were fed with high-fat feed and 2 ml of AM25-6 bacterial solution (1×10^9 cfu/ml) daily;
Bacterial agent group 2: the mice were fed with high-fat feed and 2 ml of DSM 17244 bacterial solution (1×10^9 cfu/ml) daily;
Bacterial agent group 3: the mice were fed with high-fat feed and 2 ml of DSM 28733 bacterial solution (1×10^9 cfu/ml) daily;
Tongmai Jiangzhi tablet group (a positive drug for the treatment of hyperlipidemia): the mice were fed with high-fat feed and 0.6 g/kg Tongmai Jiangzhi tablets;
Experimental data such as the body condition, food intake amount and the like of mice was recorded every week before and after the intervention of the model. After the completion of experiment, the mice were sacrificed, and the fat content was recorded, the serum was collected for detection of blood lipid contents (including total cholesterol (TC), triglyceride (TG), high-density lipoprotein (HDLC) and low-density lipoprotein (LDLC)) in the serum according to the instruction of kit. Blood from the last carotid artery was taken for hemorheological examination.

[6] = tested on: SD rats, myocardial ischemia induced by pituitrin; test: Experimental myocardial ischemia in rats induced by pituitrin, ST-segment displacement; details: gavage daily for 10 days, pituitrin 1 unit/kg iv., **P<0.01, *P<0.05 relative to model group
Protocol: Fifty SD rats (purchased from Guangdong Medical Experimental Animal Center, half male and half female) at 180-220 g of body weight and 6 weeks old were used in this experiment, which were normally fed in a Specific pathogen Free (SPF) environment. The rats were adaptively fed for 1 week and then randomly divided into 5 groups, with 10 rats in each group.
Model group: the rats were fed with 2.5 ml/kg PBS by gavage daily for 10 consecutive days; Bacterial agent group 1: the rats were fed with 2.5 ml/kg AM25-6 bacterial solution (1×10^9 cfu/ml) by gavage daily for 10 consecutive days;
Bacterial agent group 2: the rats were fed with 2.5 ml/kg DSM 17244 bacterial solution (1×10^9 cfu/ml) by gavage daily for 10 consecutive days;
Bacterial agent group 3: the rats were fed with 2.5 ml/kg DSM 28733 bacterial solution (1×10^9 cfu/ml) by gavage daily for 10 consecutive days;
FuFangDanShen tablet group: the rats were fed with 2 g/kg FuFangDanShen tablet (SFDA approval number Z21020381, Tianjin Tasly (Liaoning) Pharmaceutical Co., Ltd.) by gavage daily for 10 consecutive days.
For each group, the standard lead I electrocardiogram was recorded post 1 hour of last administration, followed by sublingual intravenous injection (iv.) with pituitrin (SFDA approval number H31022259, specifications: 2 ml: 6 units, from Shanghai First Biochemical & Pharmaceutical Industry Co., Ltd.) in 1 unit/kg (in a volume of 1 ml/kg) within 15 seconds, after which the change of electrocardiogram was recorded post 5 seconds, 15 seconds, 30 seconds, 1 minute, 2 minutes, 3 minutes and 5 minutes, and the change of ST segment displacement before and after administration of pituitrin was measured and compared, with statistical analysis by using t test between groups.

[7] = Week 9, *P<0.05 relative to model group

Row | Substance | Weight of mice, Week 1 [1] | Weight of mice, Week 3 [1] | Weight of mice, Week 5 [1] | Weight of mice, Week 7 [1] | Weight of mice, Week 9 [1] | Body weight ([2]; Week 1) | Body weight ([2]; Week 3) | Body weight ([2]; Week 5) | Body weight ([2]; Week 7) | Body weight [2, 7] | Fasting blood glucose, Week 1 [3] | Fasting blood glucose, Week 3 [3] | Fasting blood glucose, Week 5 [3] | Fasting blood glucose, Week 7 [3] | Fasting blood glucose, Week 9 [3] | Blood glucose in OGTT, 0 minute [4] | Blood glucose in OGTT, 30 minutes [4] | Blood glucose in OGTT, 60 minutes [4] | Blood glucose in OGTT, 90 minutes [4] | Blood glucose in OGTT, 120 minutes [4] | other results
1 | Anaerofustis stercorihominis AM25-6 [Bacterial agent group 1] | 21.13 g | 22.59 g | 23.98 g | 24.13 g | 25.47* g | 22.34 g | 23.57 g | 24.26 g | 25.53 g | 25.97* g | 16.1 mmol/L | 15.6 mmol/L | 13.2* mmol/L | 10.4** mmol/L | 8.6** mmol/L | 9.1 mmol/L | 17.8 mmol/L | 15.9 mmol/L | 11.5* mmol/L | 10.1 mmol/L | blood viscosity [5]: 1.26*; HDLC (high-density lipoprotein) [5]: 3.219 mmol/L; LDLC (low-density lipoprotein) [5]: 1.454* mmol/L; TC (total cholesterol) [5]: 4.014* mmol/L; TG (triglyceride) [5]: 0.893* mmol/L; ST-segment displacement (±S) [6]: 0.017 ± 0.011** mv
2 | Anaerofustis stercorihominis DSM 17244 [Bacterial agent group 2] | 20.15 g | 21.78 g | 22.99 g | 23.88 g | 25.62* g | 21.55 g | 22.43 g | 23.78 g | 25.13 g | 25.58* g | 15.8 mmol/L | 15.7 mmol/L | 14.6 mmol/L | 11.7* mmol/L | 9.0** mmol/L | 9.7 mmol/L | 18.0 mmol/L | 14.9 mmol/L | 12.1* mmol/L | 9.9 mmol/L | blood viscosity [5]: 1.29*; HDLC (high-density lipoprotein) [5]: 3.219 mmol/L; LDLC (low-density lipoprotein) [5]: 1.585* mmol/L; TC (total cholesterol) [5]: 4.021* mmol/L; TG (triglyceride) [5]: 0.933* mmol/L; ST-segment displacement (±S) [6]: 0.018 ± 0.012** mv
3 | Anaerofustis stercorihominis DSM 28733 [Bacterial agent group 3] | 21.19 g | 22.44 g | 23.78 g | 24.19 g | 25.67* g | 21.76 g | 23.36 g | 24.57 g | 25.14 g | 25.45* g | 16.7 mmol/L | 15.5 mmol/L | 13.6* mmol/L | 10.4** mmol/L | 7.8** mmol/L | 9.6 mmol/L | 18.2 mmol/L | 15.6 mmol/L | 11.7* mmol/L | 10.2 mmol/L | blood viscosity [5]: 1.25*; HDLC (high-density lipoprotein) [5]: 3.311 mmol/L; LDLC (low-density lipoprotein) [5]: 1.423* mmol/L; TC (total cholesterol) [5]: 4.017* mmol/L; TG (triglyceride) [5]: 0.912* mmol/L; ST-segment displacement (±S) [6]: 0.020 ± 0.012** mv
